Test results: publication PMC8791944, “GLUT3 inhibitor discovery through in silico ligand screening and in vivo validation in eukaryotic expression systems” (Scientific Reports, 2022)

What follows are molecules tested on Caco-2 (colon cancer) cells (assay: MTT cancer cell viability assay, Caco-2). Details: Homo sapiens, Caco-2, 48 h.
Type: cell-based
Procedure: A possible therapeutic application of GLUT3 inhibitors is in oncology, especially for cancers in which GLUT3 is a poor prognosis marker. We tested the effect of GLUT3 inhibitors on the cell viability of several different cancer lines: myeloid leukemia (HL60 and U937), lung cancer (A549), colorectal adenocarcinoma (Caco-2), breast cancer (MCF7), hepatocellular carcinoma (HepG2), and choriocarcinoma (BeWo) cells. GLUT3 inhibitors, at five different concentrations, ranging from 2 to 100 µM, were incubated with cancer cells for 48 h. Then, cell viability was assessed with the MTT assay. […] G3iC and G3iD also affected the leukemia cell lines but at double the concentrations of G3iB and G3iE. […] G3iB had some cytotoxic activity (CC50 < 50 µM) against the highest number of cancer cell lines (HL60, U937, A549, HepG2, and MCF7).
Cancer cell viability in the presence of GLUT3 inhibitors was assayed using the MTT Cell Viability Kit (Biotium Inc, Freemont, CA) according to manufacturer’s instructions. Cancer cells were grown in the corresponding medium, at 37 °C and 5% CO2 in a humidified incubator. The media (Gibco) for leukemia cells (HL60 and U937), A549, MCF7, BeWo, and HepG2 cells were RPMI 1640, Ham’s F-12K, DMEM:F-12, Ham’s F-12K, and EMEM, respectively, all supplemented with 10% (v/v) fetal bovine serum (HyClone). Caco-2 cells were grown in EMEM supplemented with 20% (v/v) fetal bovine serum. Cells were detached from the culture flasks with Accutase (Innovative Cell Technologies, Inc., San Diego, CA) according to manufacturer’s instructions. Cells were seeded in 96-well plates, at a density of ~ 30,000 cells/well (in 100 µl fresh media) and incubated with varying concentrations of GLUT3 inhibitors for 48 h, at 37 °C and 5% CO2 in a humidified incubator. The inhibitors were dissolved in DMSO, at 100× the final concentration, so that 1 µl of the stock inhibitor concentration was added per well, making the final DMSO concentration 1% (v/v). Therefore, controls for 100% cell viability were cells with 1% (v/v) DMSO without the inhibitors. Controls for 0% cell viability were cells treated with 0.3% (v/v) Tween 20. For MTT assay, 10 µl of MTT reagent was added in each well followed by 3–4 h incubation at 37 °C and 5% CO2 in a humidified incubator. After thoroughly mixing in 200 µl DMSO in each well, the plates were put into a plate reader (BioTek Synergy H1), and the absorbances at 570 nm and 630 nm were measured with Gen5 program (BioTek Inc.). The experimental values represent Abs570 nm-Abs630 nm with each inhibitor condition and control being the average of three wells.
Supplementary Figure S8. Effect of GLUT3 inhibitors on the viability of various cancer cell lines. Cell viability was determined by MTT assay in A549 (lung cancer), BeWo (choriocarcinoma), Caco-2 (colon cancer), HepG2 (liver cancer), HL-60 (leukemia), MCF7 (breast cancer), and U937 (histiocytic lymphoma) cell lines. GLUT3 inhibitors at concentrations of 2, 5, 10, 20, 50, and 100 µM were incubated with cells in 96-well plates for 48 hours before the addition of the MTT reagent.
`COc1ccccc1-n1c(/C=C/c2ccc(O)cc2)nc2ccc(Br)cc2c1=O` [G3iB, 6-bromo-2-[(E)-2-(4-hydroxyphenyl)ethenyl]-3-(2-methoxyphenyl)quinazolin-4(3H)-one] was tested, and the CC50 was greater than 50 µM.

Same assay, conditions: Homo sapiens, Caco-2; Caco2, 48 h, MTT; read-out: CC50
In the case of `CC(=O)Nc1ccc(S(=O)(=O)Nc2ccc(Nc3cc(N(C)C)nc(C)n3)cc2)cc1` [G3iA, N-(4-{[(4-{[6-(dimethylamino)-2-methylpyrimidin-4-yl]amino}phenyl)amino]sulfonyl}phenyl)acetamide], the CC50 is reported as greater than 100 µM. `Cc1cccnc1OC1CCN(c2cc(N3CCCC3CO)ncn2)CC1` (stereo not drawn) [G3iC] was tested, and the CC50 was greater than 100 µM. `Cc1cc(NC(=O)CCC2Cc3ccccc3NC2=O)nc(-c2ccccc2)n1` (stereo not drawn) [G3iD] gave a CC50 greater than 100 µM. With `O=C(Nc1cccc(Cl)c1)c1cccc(NC(=O)c2cccc([N+](=O)[O-])c2)c1` [G3iE, N-{3-[(3-chloroanilino)carbonyl]phenyl}-3-nitrobenzamide] the CC50 was greater than 50 µM. `Cc1ccccc1CN(Cc1nnc(C(C)(C)C)o1)c1ccc2nc(O)[nH]c2c1` [G3iF] showed a CC50 greater than 100 µM.
